# Results published in EP4512806A1, “MOLECULAR GLUE DEGRADERS AND USES THEREOF” (Mablink Bioscience, priority 2023, dated 2025).
# How the values were obtained:
# Cyclin K = test: CycK mRNA RT-qPCR in JIMT-1 cells; format: cell-based, human; details: 1µM final concentration, 2h
# Experimental: 1×10^6 JIMT-1 cells were plated in 3mL of DMEM/FBS 90:10 (v/v) in 6-well plates and incubated overnight. Cells were treated with the compound 2384 of the invention, with CR8 (a known molecular glue degrader that depletes CycK) or with the proteasome inhibitor MG-132 (MedChemExpress, Cat HY-13259) for 2h. RNA was extracted using the QIAamp RNeasy Mini Kit (cat#74106, Qiagen) according to the manufacturer's protocol. Reverse transcription was performed using SuperScripr™ IV reverse transcriptase (cat#LT02241, Invitrogen). Quantitative PCR was performed using a No ROX Sybr Master Mix in the LightCycler 480 Real-Time PCR system (Roche Life Science).
# Cyclin K forward ([…]) and reverse ([…]) primers were purchased from Eurogentec. Gene expression was normalized using ribosomal 28S as the housekeeping gene.
# JIMT-1 cells = test: Cell cycle arrest assessment (propidium iodide, flow cytometry); format: cell-based, human; details: 24h, 2, 5, 10, and 50nM
# Experimental: 1×10^6 JIMT-1 cells were plated in 3mL of DMEM/FBS 90:10 (v/v) in 6-well plates and incubated overnight. Cells were treated with the compound 2384 of the invention or with CR8 for 24h. Cells were then harvested and washed three times with PBS. Cells were suspended into 300µL of propidium iodide working solution (0.05mg/mL) and incubated for 45 minutes at 4°C in the dark. Analysis was performed using a BD Fortessa flow cytometer controlled by BD FACSDiva software (BD Biosciences) and data were analyzed using FlowJo software (BD Bioscience).
# [1] = system: panel of human cancer cell lines; test: In vitro cytotoxicity assay (MTT), panel of cell lines; format: cell-based
# Description: Human cancer cell lines used in the present project were purchased from either the American Type Culture Collection (ATCC), The Leibniz Institute DSMZ German Collection of Microorganisms and Cell Cultures GmbH (DSMZ) or the European Collection of Authenticated Cell Cultures (ECACC). For use in experiments, cells were cultivated following good and established cell culture practices, following instructions from the original ATCC/DSMZ/ECACC supplier for cell culture media & supplement, cryopreservation, and subculturing procedures. Cells were incubated under a 5% CO2 atmosphere at 37°C for no longer than 2 months.
# In vitro cytotoxicity of compounds of the disclosure was assessed on several cancerous human cell lines. Cells were plated in 96-well plates at an appropriate density depending on the cell line (between 1000 and 10 000 cells/well in 100µL of appropriate culture media) and incubated at 37°C for 24 hours. Serial dilutions of the tested compound previously dissolved in culture media (50µL) were added, and incubation was carried at 37°C out for 6 days. MTT (5mg/mL in PBS, 20µL, Sigma-Aldrich) was added into the wells, and incubation was continued for 1 to 4 hours at 37°C. Culture media was then carefully removed, and well content was homogeneously dissolved with acidified isopropanol. Absorbance values were measured on a microplate reader using a wavelength of 570 nm (with a reference wavelength of 690 nm). The IC50 concentration values compared to untreated control cells were determined using inhibition dose response curve fitting (GraphPad Prism 9). Exatecan mesylate (cat#HY-13631A) and CR8 (CAS# 294646-77-8; cat#HY-18340) were purchased from MedChemExpress (China).
# [2] = In vivo mice tolerability assessment; details: female CD-1 mice, single intravenous 1mg/kg dose, Mean
# Experimental: All animal procedures were performed in accordance with the European Union directive 86/609/EEC. Experiments were performed under individual permit and in accredited animal care facilities.
# Mouse tolerability experiments were performed with selected compounds of the disclosure. Female CD-1 mice (n=5 mice per group) were treated with a single intravenous 1mg/kg dose of compound. Vehicle was PBS pH 6.0. Mice were carefully monitored for mortality, external clinical findings, weight loss, behavior and apparent signs of toxicity over the course of 21 days.
# 340 protein kinases = test: Kinase screening assay (radiometric 33PanQinase ActivityAssay); format: biochemical, human; details: final compound concentration of 10 µM; most inhibited kinases belong to CMGC family, particularly CDK; 23 out of the 30 most inhibited were CDK/Cyclin complexes
# Experimental: Compound 2384 according to the disclosure was subjected to kinase screening assays (performed at Reaction Biology, Germany). The screening assay was performed at a final compound concentration of 10 µM. A radiometric protein kinase assay (33PanQinase® ActivityAssay) was used for measuring the kinase activity of 340 protein kinases. All kinase assays were performed in 96-well FlashPlates™ from Perkin Elmer (Boston, MA, USA) in a 50 µL reaction volume. […] All PKC assays (except the PKC-mu and the PKC-nu assay) additionally contained 1 mM CaCl2, 4 mM EDTA, 5 µg/ml Phosphatidylserine and 1 µg/ml 1,2-Dioleyl-glycerol. The CAMK1D, CAMK2A, CAMK2B, CAMK2D, CAMK2G, CAMK4, CAMKK1, CAMKK2, DAPK2, EEF2K, MYLK, MYLK2 and MYLK3 assays additionally contained 1 µg/ml Calmodulin and 0.5 mM CaCl2. The PRKG1 and PRKG2 assays additionally contained 1 µM cGMP. The DNA-PK assay additionally contained 2.5 µg/ml DNA. The protein kinase reaction cocktails were incubated at 30°C for 60 minutes. The reaction was stopped with 50 µl of 2 % (v/v) H3PO4, plates were aspirated and washed two times with 200 µL 0.9 % (w/v) NaCl. Incorporation of 33Pi (counting of "cpm") was determined with a microplate scintillation counter (Microbeta, Wallac). All protein kinase assays were performed with a BeckmanCoulter Biomek 2000/SL robotic system. […]
smiles,measurement,setting,value
N[C@H]1CC[C@H](Nc2nc(NCc3ccc(-c4ccccn4)cc3)n3ncc(Br)c3n2)CC1 [Compound 2384],CycK mRNA level,Cyclin K,not at the CycK mRNA level
same,cell cycle analysis (propidium iodide),JIMT-1 cells,arrest in the G2/M phase
same,in vitro cytotoxic potency,"[1]; panel of human cancer cell lines, in words",low nanomolar potencies
same,cytotoxic potency compared to isopropyl counterpart,"[1]; side-by-side comparison, Figures 1A/1B and 2A/2B",systematically more potent
same,average weight change (% initial weight),[2]; Study Day 1,0.0 % initial weight
same,average weight change (% initial weight),[2]; Study Day 2,-2.5 % initial weight
same,average weight change (% initial weight),[2]; Study Day 3,-7.1 % initial weight
same,average weight change (% initial weight),[2]; Study Day 4,-14.6 % initial weight
same,average weight change (% initial weight),[2]; Study Day 5,-15.2 % initial weight
same,average weight change (% initial weight),[2]; Study Day 6,-14.9 % initial weight
same,average weight change (% initial weight),[2]; Study Day 7,-12.4 % initial weight
same,average weight change (% initial weight),[2]; Study Day 8,-9.2 % initial weight
same,average weight change (% initial weight),[2]; Study Day 9,-7.3 % initial weight
same,average weight change (% initial weight),[2]; Study Day 10,-1.9 % initial weight
same,average weight change (% initial weight),[2]; Study Day 11,-0.7 % initial weight
same,average weight change (% initial weight),[2]; Study Day 12,4.1 % initial weight
same,average weight change (% initial weight),[2]; Study Day 13,1.9 % initial weight
same,average weight change (% initial weight),[2]; Study Day 14,-1.8 % initial weight
same,average weight change (% initial weight),[2]; Study Day 15,-3.4 % initial weight
same,average weight change (% initial weight),[2]; Study Day 16,-4.1 % initial weight
same,average weight change (% initial weight),[2]; Study Day 17,-1.6 % initial weight
same,average weight change (% initial weight),[2]; Study Day 18,-0.5 % initial weight
same,average weight change (% initial weight),[2]; Study Day 19,0.7 % initial weight
same,average weight change (% initial weight),[2]; Study Day 20,2.6 % initial weight
same,average weight change (% initial weight),[2]; Study Day 21,2.0 % initial weight
same,inhibition of most inhibited kinases,340 protein kinases,more than 90%
